We go through one compound from patent US20190160035A1, “METHOD OF TREATMENT” (QBIOTICS LIMITED, priority 2016, published 2019).

Each structure is given as a SMILES string. Values joined by “and” are separate entries in the source; they are usually repeats but may differ in a detail not shown here. Identical values can stand only once.

Assay [1] relates to cutaneous MCT or subcutaneous MCT. Description: Example 4: long term follow up of Example 1 dogs for tumor recurrence. For Tumor recurrence at case follow-up, approx. month 2 after last treatment: key: NTR = no tumor recurrence; TR = tumor recurrence. For Tumor recurrence at case follow-up, approx. month 3 after last treatment: key: NTR = no tumor recurrence; TR = tumor recurrence. For Tumor recurrence at case follow-up, approx. month 4 after last treatment: key: NTR = no tumor recurrence; TR = tumor recurrence. For Tumor recurrence at case follow-up, approx. month 5 after last treatment: key: NTR = no tumor recurrence; TR = tumor recurrence. The class given is in vivo. How it is done: The dogs of in Example 1, treated with 1.0 mg Compound 1 per mL in 40% propylene glycol solution (0.4 mL/cm^3 tumor), were followed up post-treatment.
The attending veterinarian advised dog C03-T-04 enter a new treatment program for residual tissue mass treatment due to a putative immune deficiency, and dog C03-T-07 died on Day 4 post treatment.

Assay [2] has the same test system. Description: Example 1: RECIST v.1.1 tumor response after a single intratumoral Compound 1 injection (0.4 mL/cm^3 of tumor) with prophylactic and supportive medications. The class given is in vivo, Canis lupus familiaris (dog). From the text: Study dogs were managed similarly and with due regard for their welfare. Animals were enrolled in the study in accordance with instructions provided in Australian Pesticides and Veterinary Medicines Authority (APVMA) small-scale trials permit PER7250 (unregistered drug use). All animals were client-owned, treated by Australian registered veterinarians, and cases managed under their direct supervision. An enrolled dog could be removed from the study prior to study completion under the following circumstances: • 1. If at any time during the study, in the opinion of the attending veterinarian, the dog's welfare is at risk due to non-response of the tumor to Compound 1 treatment or due to a serious adverse event, the veterinarian could elect to withdraw the dog from the study. Following withdrawal, the dog's attending veterinarian could then administer supportive treatment and veterinary care that they deem is appropriate and in the best interest of the animal. • 2. The owner elected to voluntarily withdraw the dog from the study.
Dogs were selected for the study if they met the criteria in Table 1 below.
Compound 1 was prepared for intratumoral injection by preparation of a composition comprising 1 mg/mL Compound 1 in a 40% propylene glycol solution with 30 mM acetate buffer, pH 4.2. The dosage level was 0.4 mL/cm^3 of tumor.
The drug was administered to each dog as 0.4 mL per cm^3 of tumor volume (40% v/v tumor) as determined on the day of dosing (Day 0). Tumor volume was determined using the modified ellipsoidal calculation=½×length×width×depth (cm) (Monga et al, 2000; Celikoglu et al, 2008).
Wherever possible, the tumor and a 2 cm border surrounding the tumor was shaved prior to treatment. To deliver the drug, the needle of the dosing syringe was inserted into the tumor at the injection point and moved in a radial manner in 2- and 3-dimensions. Treatment administration was recorded on the individual “Case Report Form”. Study dogs were clinically examined at 2-4 and 24 hours, and 7 (±2), 14 (±2) and 28 (±2) days post-treatment (and unscheduled visits at attending veterinarian discretion).
Each supervising veterinarian was given latitude to provide and record prophylactic and supportive medications as deemed appropriate for managing potential paraneoplastic events and tumor site necrosis following treatment with Compound 1. […]
Determination of efficacy was based on objective tumor measurements made according to the Response Evaluation Criteria in Solid Tumors (RECIST) v.1.1 guideline (Eisenhauer et al, 2009) using the longest unidirectional tumor measurement (diameter). […] Measurements were recorded using digital calipers at pre-treatment and at 7(±2), 14(±2) and 28(±2) days post treatment. […]

As for `C/C=C(\C)C(=O)O[C@@H]1[C@@H](C)[C@@]2(O)[C@H]([C@@H]3C(C)(C)[C@]13OC(=O)[C@@H](C)CC)[C@@H]1O[C@]1(CO)[C@@H](O)[C@]1(O)C(=O)C(C)=C[C@H]12` [Compound 1, 12-tigloyl-13-(2-methylbutanoyl)-6,7-epoxy-4,5,9,12,13,20-hexahydroxy-1-tigliaen-3-one], in assay [1] (196: dog C03-N-01 (approx. 6 months), 359: dog C03-T-02 (approx. 12 months)), the “Time post treatment at which tumor recurrence was identified” value was 196 days and 359 days. In addition, the “Time the dog remained tumor free post treatment” value in assay [1] (dog C03-T-06, approx. 8 months, until euthanased for diabetes and kidney failure) is 265 days. In assay [1] (dogs C03-N-03, C03-T-01, C03-T-03), the “Number of dogs with residual tumor mass on Days 28-29 post treatment (retreated)” value is given as 3. Besides, the “Tumor recurrence post-repeat treatment” value in assay [1] (dogs C03-N-03, C03-T-01, C03-T-03, examined out to 389, 339 and 346 days) was “None of these dogs exhibited tumor recurrence”. The “Number of dogs treated successfully with a single treatment and no tumor recurrence within the duration of assessment” value in assay [1] (of ten dogs available for follow up) was 5. Further, in assay [1] (one value per dog), the “Tumor recurrence at case follow-up, approx. month 1 after last treatment” value is “NTR (3×) and TR (TR = tumor recurrence)”; the “Tumor recurrence at case follow-up, approx. month 2 after last treatment” value is recorded as “NTR”; the “Tumor recurrence at case follow-up, approx. month 3 after last treatment” value was “NTR”; the “Tumor recurrence at case follow-up, approx. month 4 after last treatment” value was “NTR”. Besides, in assay [1] (one value per dog), the “Tumor recurrence at case follow-up, approx. month 5 after last treatment” value is “NTR”; the “Tumor recurrence at case follow-up, approx. month 6 after last treatment” value is listed as “NTR”; the “Tumor recurrence at case follow-up, approx. month 7 after last treatment” value is “NTR”; the “Tumor recurrence at case follow-up, approx. month 9 after last treatment” value is “NTR”. In addition, in assay [1] (one value per dog), the “Tumor recurrence at case follow-up, approx. month 11 after last treatment” value was “NTR”; the “Tumor recurrence at case follow-up, approx. month 12 after last treatment” value was “TR (TR = tumor recurrence) and NTR (4×)”. In assay [1] (one value per dog, Example 1 dogs), the Repeat treatment required result is “Day 28 (2×) and Nil (7×) and Day 29”. The “Number of dogs with partial response (PR)” value in assay [2] (Day 28, 11 dogs available of 12 treated) worked out at 3. In addition, the “Number of dogs with complete response (CR)” value in assay [2] (Day 28, 11 dogs available of 12 treated, 1.0 mg/mL, 0.4 mL/cm^3) is 6. Also, the “Tumor cytology in the autopsied injection site” value in assay [2] (dog C03-T-07, Day 4, personal correspondence with attending veterinarian) is “no tumor cytology was identified”. The RECIST classification entry in assay [2] (one value per dog, Day 28, single intratumoral dose, 1.0 mg/mL, 0.4 mL/cm^3 tumor) was “PR (partial response (PR, at least 30% decrease in the longest diameter of target lesion))”.
